Results from PubChem BioAssay AID256 (DTP/NCI, 2004).
Values joined by “and” are separate entries in the source; they are usually repeats but may differ in a detail not shown here. Identical values can stand only once. Inconclusive results and toxic doses are left out.

Tested on: CD2F1 mice, L1210 leukemia ip, survival T/C
Test: NCI In Vivo Anticancer Drug Screen. Data for tumor model L1210 Leukemia (intraperitoneal) in CD2F1 (CDF1) mice
Details: higher = longer survival
Summary of the method: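 Activity against a transplanted murine tumor was judged by comparing the compound group with a vehicle group. The outcome in the treated animals was divided by that in the controls.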

[1] = endpoint: mean survival time, dose: 100.0 mg/kg/injection, schedule: Q04DX003 (ip), vehicle: saline with Tween-80
[2] = endpoint: mean survival time, dose: 200.0 mg/kg/injection, schedule: Q04DX003 (ip), vehicle: saline with Tween-80
[3] = endpoint: mean survival time, dose: 400.0 mg/kg/injection, schedule: Q04DX003 (ip), vehicle: saline with Tween-80
[4] = endpoint: mean survival time, dose: 100.0 mg/kg/injection, schedule: Q01DX009 (ip), vehicle: saline with Tween-80
[5] = endpoint: mean survival time, dose: 200.0 mg/kg/injection, schedule: Q01DX009 (ip), vehicle: saline with Tween-80
[6] = endpoint: mean survival time, dose: 400.0 mg/kg/injection, schedule: Q01DX009 (ip), vehicle: saline with Tween-80

c1cc[c]([Sn]([NH]c2ncnc3[nH]cnc23)([NH]c2ncnc3[nH]cnc23)[c]2ccccc2)cc1
T/C (endpoint: median survival time, dose: 12.5 mg/kg/injection, schedule: Q01DX009 (ip), vehicle: saline with Tween-80): 102 % of control | T/C (endpoint: median survival time, dose: 12.5 mg/kg/injection, schedule: Q01DX009 (ip), vehicle: suspension in saline): 98 % of control | T/C (endpoint: median survival time, dose: 25.0 mg/kg/injection, schedule: Q01DX009 (ip), vehicle: saline with Tween-80): 113 % of control | T/C (endpoint: median survival time, dose: 25.0 mg/kg/injection, schedule: Q01DX009 (ip), vehicle: saline): 154 % of control | T/C (endpoint: median survival time, dose: 25.0 mg/kg/injection, schedule: Q01DX009 (ip), vehicle: suspension in saline): 100 % of control | T/C (endpoint: median survival time, dose: 50.0 mg/kg/injection, schedule: Q01DX009 (ip), vehicle: saline with Tween-80): 118 % of control | T/C (endpoint: median survival time, dose: 50.0 mg/kg/injection, schedule: Q01DX009 (ip), vehicle: suspension in saline): 102 % of control | T/C (endpoint: median survival time, dose: 100.0 mg/kg/injection, schedule: Q01DX009 (ip), vehicle: saline with Tween-80): 112 % of control | T/C (endpoint: median survival time, dose: 100.0 mg/kg/injection, schedule: Q01DX009 (ip), vehicle: saline): 166 % of control | T/C (endpoint: median survival time, dose: 100.0 mg/kg/injection, schedule: Q01DX009 (ip), vehicle: suspension in saline): 102 % of control | T/C (endpoint: median survival time, dose: 200.0 mg/kg/injection, schedule: Q01DX009 (ip), vehicle: saline with Tween-80): 86 % of control | T/C (endpoint: median survival time, dose: 200.0 mg/kg/injection, schedule: Q01DX009 (ip), vehicle: saline): 203 % of control | T/C (endpoint: median survival time, dose: 200.0 mg/kg/injection, schedule: Q01DX009 (ip), vehicle: suspension in saline): 112 % of control

Nc1c(Cl)cc(Cl)c(-c2c(Cl)cc(Cl)c(N)c2Cl)c1Cl
T/C (endpoint: mean survival time, dose: 12.5 mg/kg/injection, schedule: Q01DX009 (ip), vehicle: other): 100 % of control | T/C (endpoint: mean survival time, dose: 25.0 mg/kg/injection, schedule: Q01DX009 (ip), vehicle: other): 101 % of control | T/C (endpoint: mean survival time, dose: 50.0 mg/kg/injection, schedule: Q01DX009 (ip), vehicle: other): 101 % of control | T/C (endpoint: mean survival time, dose: 100.0 mg/kg/injection, schedule: Q01DX009 (ip), vehicle: other): 97 % of control | T/C (endpoint: mean survival time, dose: 200.0 mg/kg/injection, schedule: Q01DX009 (ip), vehicle: other): 94 % of control

O=c1[nH]c2cc3ccccc3cc2c(=O)o1
T/C [1]: 92 % of control | T/C [2]: 88 % of control | T/C [3]: 98 % of control

O=c1oc(-c2cccc(Cl)c2)nc2cc(Cl)ccc12
T/C (endpoint: mean survival time, dose: 100.0 mg/kg/injection, schedule: Q01DX001 (ip), vehicle: Klucel (hydroxypropylcellulose) (HPC)): 98 % of control | T/C (endpoint: mean survival time, dose: 200.0 mg/kg/injection, schedule: Q01DX001 (ip), vehicle: Klucel (hydroxypropylcellulose) (HPC)): 95 % of control | T/C (endpoint: mean survival time, dose: 400.0 mg/kg/injection, schedule: Q01DX001 (ip), vehicle: Klucel (hydroxypropylcellulose) (HPC)): 94 % of control

COC(=O)C(C(=O)OC)C(Br)(OC(C)=O)OC(C)=O
T/C [4]: 97 % of control | T/C [5]: 104 % of control | T/C [6]: 109 % of control

NC(=O)OCC#CCN1CCCC1
T/C (endpoint: mean survival time, dose: 5.0 mg/kg/injection, schedule: Q01DX009 (ip), vehicle: saline with Tween-80): 102 % of control | T/C (endpoint: mean survival time, dose: 10.0 mg/kg/injection, schedule: Q01DX009 (ip), vehicle: saline with Tween-80): 103 % of control | T/C (endpoint: mean survival time, dose: 20.0 mg/kg/injection, schedule: Q01DX009 (ip), vehicle: saline with Tween-80): 100 % of control

N#Cc1cccc(/C=C/c2ccc(S(=O)(=O)F)cc2)c1
T/C (endpoint: mean survival time, dose: 100.0 mg/kg/injection, schedule: Q01DX001 (ip), vehicle: other): 95 % of control and 102 % of control | T/C (endpoint: mean survival time, dose: 100.0 mg/kg/injection, schedule: Q04DX002 (ip), vehicle: other): 92 % of control and 98 % of control | T/C (endpoint: mean survival time, dose: 100.0 mg/kg/injection, schedule: Q04DX003 (ip), vehicle: other): 100 % of control and 111 % of control | T/C (endpoint: mean survival time, dose: 200.0 mg/kg/injection, schedule: Q01DX001 (ip), vehicle: other): 88 % of control and 102 % of control | T/C (endpoint: mean survival time, dose: 200.0 mg/kg/injection, schedule: Q04DX002 (ip), vehicle: other): 101 % of control and 107 % of control | T/C (endpoint: mean survival time, dose: 200.0 mg/kg/injection, schedule: Q04DX003 (ip), vehicle: other): 99 % of control and 105 % of control | T/C (endpoint: mean survival time, dose: 400.0 mg/kg/injection, schedule: Q01DX001 (ip), vehicle: other): 92 % of control and 103 % of control | T/C (endpoint: mean survival time, dose: 400.0 mg/kg/injection, schedule: Q04DX002 (ip), vehicle: other): 93 % of control and 107 % of control

Cc1cn(C2CC(OP(=O)(O)OCC3OC(n4ccc(N)nc4=O)C(O)C3O)C(CO)O2)c(=O)[nH]c1=O (configuration not stated)
T/C (endpoint: median survival time, dose: 5.0 mg/kg/injection, schedule: Q01DX005 (ip), vehicle: saline): 107 % of control | T/C (endpoint: median survival time, dose: 10.0 mg/kg/injection, schedule: Q01DX005 (ip), vehicle: saline): 117 % of control | T/C (endpoint: median survival time, dose: 25.0 mg/kg/injection, schedule: Q01DX005 (ip), vehicle: saline): 122 % of control

CC(C)NC(=O)C1C2CCC(C2)C1C(=O)NC(C)C (configuration not stated)
T/C (endpoint: mean survival time, dose: 100.0 mg/kg/injection, schedule: Q04DX003 (ip), vehicle: saline): 98 % of control | T/C (endpoint: mean survival time, dose: 200.0 mg/kg/injection, schedule: Q04DX003 (ip), vehicle: saline): 111 % of control | T/C (endpoint: mean survival time, dose: 400.0 mg/kg/injection, schedule: Q04DX003 (ip), vehicle: saline): 98 % of control

O=[N+]([O-])c1cccc(/C=N\[n+]2ccccc2)c1
T/C (endpoint: mean survival time, dose: 50.0 mg/kg/injection, schedule: Q04DX002 (ip), vehicle: saline with Tween-80): 97 % of control | T/C (endpoint: mean survival time, dose: 100.0 mg/kg/injection, schedule: Q04DX002 (ip), vehicle: saline with Tween-80): 100 % of control | T/C (endpoint: mean survival time, dose: 200.0 mg/kg/injection, schedule: Q04DX002 (ip), vehicle: saline with Tween-80): 100 % of control

CCCC[As](=O)(O)C(C)C
T/C (endpoint: mean survival time, dose: 2.7 mg/kg/injection, schedule: Q01DX009 (ip), vehicle: saline): 93 % of control | T/C (endpoint: mean survival time, dose: 4.1 mg/kg/injection, schedule: Q01DX009 (ip), vehicle: saline): 102 % of control | T/C (endpoint: mean survival time, dose: 5.5 mg/kg/injection, schedule: Q04DX003 (ip), vehicle: saline): 100 % of control | T/C (endpoint: mean survival time, dose: 6.25 mg/kg/injection, schedule: Q01DX009 (ip), vehicle: saline): 104 % of control | T/C (endpoint: mean survival time, dose: 8.2 mg/kg/injection, schedule: Q04DX003 (ip), vehicle: saline): 104 % of control | T/C (endpoint: mean survival time, dose: 9.3 mg/kg/injection, schedule: Q01DX009 (ip), vehicle: saline): 100 % of control | T/C (endpoint: mean survival time, dose: 11.0 mg/kg/injection, schedule: Q04DX002 (ip), vehicle: saline): 106 % of control | T/C (endpoint: mean survival time, dose: 12.5 mg/kg/injection, schedule: Q04DX003 (ip), vehicle: saline): 104 % of control | T/C (endpoint: mean survival time, dose: 14.0 mg/kg/injection, schedule: Q01DX009 (ip), vehicle: saline): 93 % of control | T/C (endpoint: mean survival time, dose: 16.0 mg/kg/injection, schedule: Q04DX002 (ip), vehicle: saline): 113 % of control | T/C (endpoint: mean survival time, dose: 18.0 mg/kg/injection, schedule: Q04DX003 (ip), vehicle: saline): 100 % of control | T/C (endpoint: mean survival time, dose: 22.0 mg/kg/injection, schedule: Q01DX001 (ip), vehicle: saline): 104 % of control | T/C (endpoint: mean survival time, dose: 25.0 mg/kg/injection, schedule: Q04DX002 (ip), vehicle: saline): 100 % of control | T/C (endpoint: mean survival time, dose: 28.0 mg/kg/injection, schedule: Q04DX003 (ip), vehicle: saline): 102 % of control | T/C (endpoint: mean survival time, dose: 35.0 mg/kg/injection, schedule: Q01DX001 (ip), vehicle: saline): 102 % of control | T/C (endpoint: mean survival time, dose: 35.0 mg/kg/injection, schedule: Q04DX002 (ip), vehicle: saline): 111 % of control | T/C (endpoint: mean survival time, dose: 50.0 mg/kg/injection, schedule: Q01DX001 (ip), vehicle: saline): 104 % of control | T/C (endpoint: mean survival time, dose: 55.0 mg/kg/injection, schedule: Q04DX002 (ip), vehicle: saline): 95 % of control | T/C (endpoint: mean survival time, dose: 75.0 mg/kg/injection, schedule: Q01DX001 (ip), vehicle: saline): 111 % of control

O=[N+]([O-])C1C2C=CC(C2)C1c1ccccc1 (configuration not stated)
T/C [4]: 102 % of control | T/C [1]: 98 % of control | T/C [5]: 95 % of control | T/C [2]: 102 % of control | T/C [6]: 98 % of control | T/C [3]: 102 % of control

O=C(O)C(=O)O.[NH-]C(c1ccccc1)C([NH-])c1ccccc1.[Pt+2] (configuration not stated)
T/C (endpoint: mean survival time, dose: 6.25 mg/kg/injection, schedule: Q04DX003 (ip), vehicle: saline with Tween-80): 118 % of control | T/C (endpoint: mean survival time, dose: 12.5 mg/kg/injection, schedule: Q04DX003 (ip), vehicle: saline with Tween-80): 124 % of control

CCOC(=O)c1cnc2c(ccc3ncccc32)c1NCCCN(CC)CC
T/C (endpoint: mean survival time, dose: 12.5 mg/kg/injection, schedule: Q01DX009 (ip), vehicle: Klucel (hydroxypropylcellulose) (HPC)): 93 % of control | T/C (endpoint: mean survival time, dose: 25.0 mg/kg/injection, schedule: Q01DX009 (ip), vehicle: Klucel (hydroxypropylcellulose) (HPC)): 97 % of control | T/C (endpoint: mean survival time, dose: 50.0 mg/kg/injection, schedule: Q01DX009 (ip), vehicle: Klucel (hydroxypropylcellulose) (HPC)): 97 % of control

CC(C)(CO)C(O)C(=O)NCCS(=O)(=O)c1ccc(F)cc1 (configuration not stated)
T/C (endpoint: mean survival time, dose: 100.0 mg/kg/injection, schedule: Q01DX001 (ip), vehicle: saline with Tween-80): 105 % of control | T/C [4]: 89 % of control | T/C (endpoint: mean survival time, dose: 200.0 mg/kg/injection, schedule: Q01DX001 (ip), vehicle: saline with Tween-80): 95 % of control | T/C [5]: 89 % of control | T/C (endpoint: mean survival time, dose: 400.0 mg/kg/injection, schedule: Q01DX001 (ip), vehicle: saline with Tween-80): 100 % of control
